Assay results as given in PMC12249509, “Quinazoline Derivative kzl052 Suppresses Prostate Cancer by Targeting WRN Helicase to Stabilize DNA Replication Forks” (International Journal of Molecular Sciences, 2025).

Legend:
[1] = tested on: normal human liver cells LX2; experiment: MTT normal cytotoxicity, LX2; format: cell-based; conditions: mean ± SD, n = 3
Method: (§1) Cell suspensions were prepared in a logarithmic growth phase and seeded in 96-well plates at a density of 5000–8000 cells/well for 12 h and treated with different concentrations of kzl052 for 48 h. A 5 mg/mL MTT dye solution (Solarbio, Beijing, China) was added to all cells at 37 °C for 4 h. Then DMSO was added after removing the supernatant, and the crystals were completely dissolved by shaking at 37 °C for 15 min. The absorbance was measured at 490 nm by a microplate reader (Gene, HongKong, China). The cell proliferation inhibition rate was calculated according to the following formula: (1-experimental group OD/control group OD) × 100% with DMSO as a negative control and the WRN inhibitor (NSC 617145, GLPBIO, Montclair, CA, USA) as a positive control.

WRN-silenced PC3 cells = experiment: MTT assay in WRN-silenced PC3 cells; format: cell-based, human; conditions: shWRN lentiviral transfection
Method: Human prostate cancer cell lines PC3 and LNCaP cells were stored in the Biology Laboratory of the Natural Products Research Center of Guizhou Province (Guiyang, China). Cells were cultured in DMEM supplemented with 10% fetal bovine serum (BI, Nahariya, Israel) and 1% penicillin and streptomycin (Solarbio, Beijing, China) and incubated at 37 °C under 5% CO2, 95% air, and 95% humidity. The pLV-shWRN-GFP-Puro and blank control plasmids were constructed by Chongqing UNIBIO Biotechnology Co., Ltd. (Chongqing, China). The transfection steps were based on previous published studies. The inhibitory effect of the WRN protein in PC3 cells was detected by a Western blot assay.
as §1, with “The cell proliferation inhibition rate was calculated according to the following formula: (1-experimental group OD/control group OD) × 100% with DMSO as a negative control and the WRN inhibitor (NSC 617145, GLPBIO, Montclair, CA, USA) as a positive control.” left out

LNCaP cells [2] = experiment: Bright field and Hoechst staining, LNCaP; format: cell-based, human; conditions: 24 h
Method: (§2) PC3 and LNCaP cells were cultured and treated with different concentrations of kzl052 for 24 h and then 5 μg/mL of a Hoechst 33258 dye solution (Solarbio, Beijing, China) was added for 5–10 min after PBS washing. The fluorescence microscope (Leica, Wetzlar, Germany) was used for photo observation.

WRN protein [3] = molecular target: T1, WRN protein (Homo sapiens, UniProt Q14191); experiment: Cellular thermal shift assay (CETSA); format: binding; conditions: PC3 cells, 100 nM, 2 h
T1 construct: endogenous in cells; host or cells: PC3
T1 sequence (Q14191 whole entry): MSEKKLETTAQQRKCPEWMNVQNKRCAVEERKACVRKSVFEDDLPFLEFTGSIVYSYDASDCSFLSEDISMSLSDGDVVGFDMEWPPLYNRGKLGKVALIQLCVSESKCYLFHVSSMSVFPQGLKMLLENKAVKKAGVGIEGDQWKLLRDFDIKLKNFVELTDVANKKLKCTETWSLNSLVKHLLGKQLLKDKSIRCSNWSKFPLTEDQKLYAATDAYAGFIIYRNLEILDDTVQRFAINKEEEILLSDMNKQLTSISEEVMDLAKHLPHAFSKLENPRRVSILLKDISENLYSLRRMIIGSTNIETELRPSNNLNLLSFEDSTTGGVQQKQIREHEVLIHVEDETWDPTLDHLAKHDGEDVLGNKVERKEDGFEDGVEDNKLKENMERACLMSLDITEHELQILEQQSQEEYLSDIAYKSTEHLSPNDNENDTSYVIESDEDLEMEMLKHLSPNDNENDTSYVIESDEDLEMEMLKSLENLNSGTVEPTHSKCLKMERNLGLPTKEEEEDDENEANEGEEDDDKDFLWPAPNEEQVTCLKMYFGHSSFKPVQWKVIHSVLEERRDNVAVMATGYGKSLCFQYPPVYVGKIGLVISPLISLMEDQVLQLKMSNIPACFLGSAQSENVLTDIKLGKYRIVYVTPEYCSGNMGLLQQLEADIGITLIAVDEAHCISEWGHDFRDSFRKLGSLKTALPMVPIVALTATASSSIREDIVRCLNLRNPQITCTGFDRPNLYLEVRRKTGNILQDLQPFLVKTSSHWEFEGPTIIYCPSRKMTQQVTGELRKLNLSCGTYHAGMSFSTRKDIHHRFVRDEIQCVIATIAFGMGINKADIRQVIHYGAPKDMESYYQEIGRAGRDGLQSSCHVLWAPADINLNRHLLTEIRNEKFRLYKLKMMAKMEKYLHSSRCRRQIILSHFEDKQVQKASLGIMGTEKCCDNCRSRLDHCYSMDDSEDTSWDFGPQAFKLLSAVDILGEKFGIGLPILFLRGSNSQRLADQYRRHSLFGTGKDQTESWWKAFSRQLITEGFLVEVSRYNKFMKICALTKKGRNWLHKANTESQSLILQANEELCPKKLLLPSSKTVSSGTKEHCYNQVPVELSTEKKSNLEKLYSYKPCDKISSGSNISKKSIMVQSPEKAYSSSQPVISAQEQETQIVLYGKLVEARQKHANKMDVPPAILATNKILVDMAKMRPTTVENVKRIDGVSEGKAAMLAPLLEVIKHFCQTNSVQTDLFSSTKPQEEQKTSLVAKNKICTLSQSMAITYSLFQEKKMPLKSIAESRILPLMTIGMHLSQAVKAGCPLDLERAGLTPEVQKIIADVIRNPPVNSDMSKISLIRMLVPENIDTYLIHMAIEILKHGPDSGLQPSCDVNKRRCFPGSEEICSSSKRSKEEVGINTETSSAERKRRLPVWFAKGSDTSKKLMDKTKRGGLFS
Method: PC3 cells were cultured and treated with 100 nM kzl052 for 2 h. The cells were collected into 1.5 mL EP tubes, treated with a metal bath at different temperatures (43 °C, 46 °C, 49 °C, 52 °C, and 55 °C) for 3 min, and balanced for 2 min at room temperature. The supernatant was collected by centrifugation after three cycles of liquid nitrogen in a 37 °C water bath, and then a SDS-loading buffer and denatured protein was added at 100 °C for 10 min. Finally, the content of the binding of the WRN protein was detected by Western blot.

PC3 cells [4] = experiment: PC3 xenograft in BALB/c-null mice; format: in vivo; conditions: 5 mg/kg intraperitoneally
Method: Male BALB/c-null mice (4 weeks and 18–20 g) were purchased from SiPeiFu Biotechnology Co., Ltd. (Beijing, China). All SPF-grade mice were fed in the animal room with an IVC system barrier environment (Natural Products Research Center of Guizhou Province). The ambient temperature was maintained at 22 ± 2 °C, the humidity was 40–60%, and the light–dark cycle was maintained for 12 h to simulate the normal external environment. The mice took food and water autonomously. Xenografts were performed by subcutaneously implanting PC3 cells (1 × 10^7/0.1 mL). When the tumor size was 100 mm^3, the mice were randomly divided into 2 groups (N = 8). One group was intraperitoneally injected with kzl052 (5 mg/kg), and the other group was given the same dose of the solvent. The body weight and tumor volume was recorded every two days. The tumor volume (mm^3) = 0.5 × long diameter × short diameter^2. At the end of the experiment, the mice were euthanized and dissected to measure the weight of tumor tissue, heart, liver, spleen, kidney, and lung.
The tumor tissue sections were placed sequentially in xylene I/10 min; xylene II/10 min; absolute ethanol I/5 min; absolute ethanol II/5 min; 95% ethanol/5 min; 90% ethanol/5 min; 80% ethanol/5 min; and 70% ethanol/5 min. Then the sections were treated in a hematoxylin staining solution (Solarbio, Beijing, China) for 3–5 min. The slices were treated by 1% hydrochloric acid alcohol for 5–10 s. The sections were treated in an eosin staining solution (Solarbio, Beijing, China) for 1–3 min. Next, the slices were dehydrated with 95% ethanol/5 min; anhydrous ethanol I/5 min; anhydrous ethanol/5 min; xylene I/5 min; and xylene II/5 min. Finally, the sections were sealed with a neutral gum (Solarbio, Beijing, China). The H&E staining results were photographed and analyzed under light microscopes (Leica, Wetzlar, Germany).
The tissue sections were roasted, dewaxed, hydrated, antigen repaired, blocked, and incubated with a polyclonal antibody (PNCA, RPA, Mre11, PARP1, and RB1 at a 1:50 dilution, HUBIO, and γ-H2A.X at a 1:50 dilution, CST) at 4 °C overnight. The HRP-labeled IgG secondary antibody (1:1000 dilution, HUBIO, Hangzhou, China) was incubated at 37 °C for 2 h, stained with DAB, and then stained with hematoxylin (Solarbio, Beijing, China) and sealed with a neutral rubber (Solarbio, Beijing, China). It was also observed and photographed under a microscope (Leica, Wetzlar, Germany). The immunohistochemical results were statistically analyzed using image Pro plus (V6.0) software.

LNCaP cells [5] = experiment: γ-H2A.X immunofluorescence (DNA damage), LNCaP; format: cell-based, human; conditions: 100 nM, 24 h
Method: (§3) Cell slides were prepared and treated with 100nM kzl052 for 24 h. A 4% PFA was added for fixation after PBS washing, and then the cells were treated with Triton X-100 (Sigma-Aldrich, Saint Louis, MO, USA) for 30 min. The cells were blocked with 4% BSA for 2 h and incubated overnight at 4 °C with a γ-H2A.X primary antibody (1:1000, CST, Boston, MA, USA). A fluorescent secondary antibody (1:50; CST) was added and incubated in the dark for 2 h. After washing with PBS, a 10 μg/mL DAPI staining solution was added and treated the cells for 5–10 min. The expression and localization of γ-H2A.X was detected by inverted fluorescence microscopy (Leica, Wetzlar, Germany).

[6] = tested on: normal human renal epithelial cells HK2; experiment: MTT normal cytotoxicity, HK2; format: cell-based; conditions: Epithelial cell, mean ± SD, n = 3
Method: as §1

[7] = Acute toxicity assay in BALB/c mice; format: in vivo; conditions: mouse, in vivo; within 24 h, male BALB/c mice, one-time treatment
Method: (§4) The toxicity of kzl052 in vivo was tested by an acute toxicity analysis in male BALB/c mice. A total of 20 mice were divided into 5 groups randomly. Each group was given a one-time treatment of kzl052 concentrations at 0 mg/kg, 50 mg/kg, 100 mg/kg, 200 mg/kg, and 500 mg/kg. The survival or death status of mice within 24 h was observed and recorded. The survival and death rate of mice were calculated.

BALB/c mice = experiment: Acute toxicity assay in BALB/c mice; format: in vivo; conditions: 24 h; for Death Number / Survival Number: 4 mice
Method: as §4

PC3 cells [8] = experiment: Bright field and Hoechst staining, PC3; format: cell-based, human; conditions: 24 h
Method: as §2

WRN helicase = molecular target: T2, WRN helicase (Homo sapiens, UniProt Q14191); experiment: WRN-unwinding assay (WRN enzyme activity test); format: biochemical; conditions: Figure S2
T2 construct: ICE Bioscience Inc (Beijing, China)
T2 sequence (Q14191 whole entry): as above
Method: NSC617145 in WRN FI as s ay KZL -05 2 in WR N FI as s ay
Figure S2.The results of WRN-unwinding assay. WRN enzyme activity test were
performed by ICE Bioscience Inc (Beijing, China).

WRN protein [9] = experiment: Western blot of WRN protein level; format: cell-based; conditions: 24 h
PC3 cells [10] = experiment: γ-H2A.X immunofluorescence (DNA damage), PC3; format: cell-based, human; conditions: 100 nM, 24 h
Method: as §3

[11] = tested on: PARP1, Bax, PLK1, RB1, Bcl-2, SRC, PTEN, PCNA, RPA, FEN1, Mre11; experiment: Western blot of apoptosis, RB signal and replication fork proteins; format: cell-based
Method: The cells treated by kzl052 were collected, washed by precooled PBS, and removed by centrifugation at 1000 g/5 min. A RIPA lysate (Solarbio, Beijing, China) was added for 30 min on ice. The protein concentration was determined by a BCA kit (Solarbio, Beijing, China) and denatured at 105 °C. The target proteins were isolated by SDS-PAGE gel electrophoresis and transferred to the PVDF membrane (Millipore, Bedford, MA, USA). A 5% BSA was added to block for 2 h. Primary antibodies (PNCA, RPA, FEN1, Mre11, PARP1, Bax, Bcl-2, PLK1, RB1, SRC, and PTEN; 1:1000 dilution, HUBIO, Hangzhou, China) were added and incubated at 4 °C overnight. The next day, the PVDF membrane with target proteins were washed by TBST and incubated with an HRP-labeled IgG secondary antibody (1:100,000 dilution, HUBIO, Hangzhou, China) for 2 h. After TBST washed, the target proteins were isolated and analyzed by a chemiluminescence instrument (BioRad, Hercules, CA, USA).

PC3 cells [12] = experiment: MTT assay, PC3 cell growth; format: cell-based; conditions: Homo sapiens, PC-3, 24 h (Figure 1 legend), 48 h (method)
Method: as §1

LNCaP cells [13] = experiment: MTT assay, LNCaP cell growth; format: cell-based; conditions: Homo sapiens, 24 h (Figure 1 legend), 48 h (method)
Method: as §1

## CC(C)(CN1C(=O)C(Cl)=C(Cl)C1=O)CN1C(=O)C(Cl)=C(Cl)C1=O [NSC 617145]
[1]
  IC50: 1810 ± 270 nM

## Cc1ccc2nc(C(F)(F)F)nc(N(C)c3ccc(OC(F)F)cc3)c2c1 [kzl052]
[1]
  IC50: 3120 ± 90 nM
WRN-silenced PC3 cells
  sensitivity of WRN-silenced PC3 cells: more insensitive
LNCaP cells [2]
  cell death, LNCaP: promoted PC3 and LNCaP cell death
WRN protein [3]
  binding to WRN protein (CETSA): bound to the WRN protein
PC3 cells [4]
  H&E staining compared with the control group: no significant difference
  effects on mouse body weight and internal organ morphology: minimal effects
PC3 cells [4]; PC3 xenograft
  growth of PC3 cells in vivo (tumor volume, tumor quality): significantly inhibited
PC3 cells [4]; γ-H2A.X, PARP1, RB1, PCNA, RPA, Mre11
  DNA replication fork complexes in tumor tissues (immunohistochemistry): promoted the instability of DNA replication fork complexes
LNCaP cells [5]
  γ-H2A.X staining, LNCaP: significantly increased
[6]
  IC50: 920 ± 240 nM
[7]
  LD50 at 24 h: 200 to 500 mg/kg
BALB/c mice; 50 mg/kg
  Mortality Rate: 0%
  Survival Rate: 100%
  Death Number: 0
  Survival Number: 4
BALB/c mice; 100 mg/kg
  Mortality Rate: 0%
  Survival Rate: 100%
  Death Number: 0
  Survival Number: 4
BALB/c mice; 200 mg/kg
  Mortality Rate: 0%
  Survival Rate: 100%
  Death Number: 0
  Survival Number: 4
BALB/c mice; 500 mg/kg
  Mortality Rate: 75%
  Survival Rate: 25%
  Death Number: 3
  Survival Number: 1
PC3 cells [8]
  cell death, PC3: promoted PC3 and LNCaP cell death
WRN helicase
  effect on activity of WRN helicase: did not affect the activity of WRN helicase
WRN protein [9]
  WRN protein expression: significantly inhibited
PC3 cells [10]
  γ-H2A.X staining, PC3: significantly increased
[11]
  expression of PARP1, Bax, PLK1, and RB1: significantly up-regulated
  expression of PCNA, RPA, and FEN1: significantly inhibited
  protein level of Mre11: up-regulated
  protein levels of Bcl-2, SRC, and PTEN: inhibited
PC3 cells [12]
  IC50: 390 ± 10 nM
LNCaP cells [13]
  IC50: 110 ± 10 nM

## CC(=O)O[C@@]12CO[C@@H]1C[C@H](O)[C@@]1(C)C(=O)[C@H](O)C3=C(C)[C@@H](OC(=O)[C@H](O)[C@@H](NC(=O)OC(C)(C)C)c4ccccc4)C[C@@](O)([C@@H](OC(=O)c4ccccc4)[C@H]21)C3(C)C [Docetaxel, reference compound]
[1]
  IC50: 410 ± 110 nM
[6]
  IC50: 110 ± 10 nM
